System: STAT3
Assay: IHC staining of pSTAT3 in xenograft tumor samples
Type: in vivo, mice
Conditions: IGROV1 CR xenograft tumor samples
Description: Cell viability was measured by SRB assay. […] Data were represented as mean ± SD (n = 3). (B) Colony formation assay in cells treated as indicated. […] (D) Growth curves of xenograft tumors are shown in (C). Data are represented as means ± SEM, n = 6 mice/group. **p < 0.01. […] (F) IGROV1 CR xenograft tumor growth curve by indicated treatments. Data are represented as means ± SD, n = 6 tumors/group. **p < 0.01. (G) Immunohistochemistry (IHC) staining against pSTAT3 antibodies of tumor samples from four groups of mice (magnification, 200x) (Upper).
Immun ohistochemical (IHC) sta i n in g an d scor ing we r e performed as prev iou sl y described (2).
The qu anti ficatio n of immunohistochemical sta in ing wa s scored blindly at lea st by two independent obser vers. Antibodies used in IHC as say are: SENP1 (ab108981, Abcam, Cambridge, UK), JA K 2 , p‐STAT 3 (ab76315; Abcam), Bc l‐xL (2764S; Cell Signaling Technology) (#3776, Cell Signaling Technologies, Danvers, MA, USA).
11. Cellular thermal shift assay and in vitro thermal shift assay
Cellular thermal shift assay was as previously described (5). Briefly, cells were pretreated with MG132 (10 µM, 1 hour) then incubated wi th DMSO, Mc, UA or UAMMC9 (2 µM) for 4 hours. […]

C[C@H]1[C@H](C)CC[C@]2(C(=O)NCC(=O)N(C)CCO)CC[C@]3(C)C(=CC[C@@H]4[C@@]5(C)CC[C@H](O)C(C)(C)[C@@H]5CC[C@]43C)[C@H]12 [UAMMC9]
activation of STAT3 in vivo (pSTAT3 IHC): inhibit the activation of STAT3

From publication PMC8710297, “Identification of potent SENP1 inhibitors that inactivate SENP1/JAK2/STAT signaling pathway and overcome platinum drug resistance in ovarian cancer” (Clinical and Translational Medicine, 2021)
